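1) Cells in 96-well plates. 2) Compound, 48 h, 5 concentrations. 3) Linear interpolation between surrounding doses. 4) Unreached endpoint = highest concentration. At the GI50, growth is halved.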 The source made the active and inactive calls. Rule as the data show it: active = GI50 up to about 1.1 µM and inactive = higher.
Experiments:
Experiment in all cases: NCI anticancer screen, dose series, 48 h
DMS-114 = test system: DMS-114
DLD-1 = test system: DLD-1
KM-20L2 = test system: KM-20L2
SNB-78 = test system: SNB-78
LXFL 529 = test system: LXFL 529
XF498 = test system: XF498
DMS-273 = test system: DMS-273
RXF 631 = test system: RXF 631
HOP-18 = test system: HOP-18

Structure (SMILES)	GI50 (DMS-114)	GI50 (DLD-1)	GI50 (KM-20L2)	GI50 (SNB-78)	GI50 (LXFL 529)	GI50 (XF498)	GI50 (DMS-273)	GI50 (RXF 631)	GI50 (HOP-18)
COc1ccc(/C=C2\Cc3ccccc3C2=O)cc1OC	48.6 µM (inactive)	> 100 µM (inactive)	> 100 µM (inactive)	> 100 µM (inactive)	75 µM (inactive)	> 100 µM (inactive)	–	–	–
COc1ccc(-c2cc(O)c3cc4c(cc3n2)OCO4)cc1	> 100 µM (inactive)	> 100 µM (inactive)	> 100 µM (inactive)	–	> 100 µM (inactive)	> 100 µM (inactive)	> 100 µM (inactive)	–	–
CCOC(=O)c1c(C)c(C)n2c1NC(=O)C2	> 100 µM (inactive)	> 100 µM (inactive)	> 100 µM (inactive)	–	> 100 µM (inactive)	0.073 µM (active)	> 100 µM (inactive)	> 100 µM (inactive)	> 100 µM (inactive)
NC(=O)COc1ccccc1	> 100 µM (inactive)	> 100 µM (inactive)	> 100 µM (inactive)	> 100 µM (inactive)	> 100 µM (inactive)	> 100 µM (inactive)	> 100 µM (inactive)	> 100 µM (inactive)	–
Nc1nc(N)c(CCCCc2ccccc2)c(C=O)n1	15.9 µM (inactive)	20.1 µM (inactive)	30.6 µM (inactive)	22.9 µM (inactive)	–	–	17.2 µM (inactive)	43.5 µM (inactive)	40.8 µM (inactive)
COC(=O)C(Cc1nc2ccccc2nc1O)/C(=N\NC(C)(C)C)C(=O)Nc1c(C)cc(Br)cc1C (stereo unspecified)	24.7 µM (inactive)	22.2 µM (inactive)	–	22.6 µM (inactive)	21.1 µM (inactive)	–	–	–	–
N#CCC(=O)N/N=C(\CCN1CCCC1)CC(c1ccccc1)c1c(O)c2ccccc2oc1=O (stereo unspecified)	–	> 100 µM (inactive)	> 100 µM (inactive)	–	> 100 µM (inactive)	> 100 µM (inactive)	–	> 100 µM (inactive)	> 100 µM (inactive)
CCC1=CCN(c2cc(C)ccn2)OC1c1ccccc1 (stereo unspecified)	56.2 µM (inactive)	34 µM (inactive)	39.2 µM (inactive)	43.9 µM (inactive)	27 µM (inactive)	22.9 µM (inactive)	43.6 µM (inactive)	25.4 µM (inactive)	> 100 µM (inactive)
CC(N)Cc1ccc(F)cc1 (stereo unspecified)	> 100 µM (inactive)	> 100 µM (inactive)	> 100 µM (inactive)	> 100 µM (inactive)	> 100 µM (inactive)	–	> 100 µM (inactive)	> 100 µM (inactive)	> 100 µM (inactive)
O=C1NCCS(=O)(=O)N[C@@H](CC2=CC=CCC2)C(=O)N2CCCC12 (stereo partly specified)	> 100 µM (inactive)	> 100 µM (inactive)	> 100 µM (inactive)	> 100 µM (inactive)	> 100 µM (inactive)	> 100 µM (inactive)	> 100 µM (inactive)	> 100 µM (inactive)	> 100 µM (inactive)
CC1(C2CCC3(C)C(C2)C3Sc2ccccc2)OCCO1 (stereo unspecified)	21.8 µM (inactive)	29 µM (inactive)	–	40 µM (inactive)	37.2 µM (inactive)	17.1 µM (inactive)	19.9 µM (inactive)	–	–
Cc1ccc(C2=Nc3ccccc3NC(=O)C2)cc1	91.2 µM (inactive)	> 100 µM (inactive)	> 100 µM (inactive)	72.6 µM (inactive)	> 100 µM (inactive)	35.9 µM (inactive)	> 100 µM (inactive)	–	> 100 µM (inactive)
CCNC(=O)OCc1c(COC(=O)NCC)c(-c2ccc(Cl)c(Cl)c2)n2c1CCC2	9.02 µM (inactive)	11.8 µM (inactive)	16.9 µM (inactive)	–	15.3 µM (inactive)	16.1 µM (inactive)	9.48 µM (inactive)	–	–
N#CC1(Cc2ccccc2)CCCCN1C(=O)c1ccccc1 (stereo unspecified)	> 100 µM (inactive)	> 100 µM (inactive)	> 100 µM (inactive)	> 100 µM (inactive)	> 100 µM (inactive)	> 100 µM (inactive)	> 100 µM (inactive)	> 100 µM (inactive)	> 100 µM (inactive)
CC1OC(n2cc(F)c(=O)[nH]c2=O)C=CC1=O (stereo unspecified)	18 µM (inactive)	18.1 µM (inactive)	18.4 µM (inactive)	18.7 µM (inactive)	16.6 µM (inactive)	–	18.6 µM (inactive)	53.8 µM (inactive)	18.3 µM (inactive)
CSC1NC=Nc2c1sc(=S)n2-c1ccccc1 (stereo unspecified)	> 100 µM (inactive)	> 100 µM (inactive)	> 100 µM (inactive)	43.5 µM (inactive)	> 100 µM (inactive)	> 100 µM (inactive)	> 100 µM (inactive)	–	> 100 µM (inactive)
CO/N=C/c1cc(OC)c(OC)c(OC)c1	> 100 µM (inactive)	> 100 µM (inactive)	> 100 µM (inactive)	> 100 µM (inactive)	> 100 µM (inactive)	> 100 µM (inactive)	> 100 µM (inactive)	> 100 µM (inactive)	> 100 µM (inactive)
CCOC(=O)[C@H](Cc1ccccc1)NC(=O)c1nc[nH]c1[N+](=O)[O-]	> 100 µM (inactive)	> 100 µM (inactive)	–	–	> 100 µM (inactive)	–	> 100 µM (inactive)	–	–
CCOC(=O)CP(=S)(S)c1ccccc1 (stereo unspecified)	> 100 µM (inactive)	> 100 µM (inactive)	> 100 µM (inactive)	> 100 µM (inactive)	> 100 µM (inactive)	45.2 µM (inactive)	> 100 µM (inactive)	–	–
C=CC1[C@H]2COC(C)(C)O[C@@H]2CC(=O)C1(C)C (stereo partly specified)	> 100 µM (inactive)	> 100 µM (inactive)	> 100 µM (inactive)	> 100 µM (inactive)	> 100 µM (inactive)	> 100 µM (inactive)	> 100 µM (inactive)	–	> 100 µM (inactive)
CC1(C)CCC[C@@]2(C)C1CC[C@H]1CC(O)C3(C)CCC12C3 (stereo partly specified)	17.3 µM (inactive)	17.1 µM (inactive)	18.9 µM (inactive)	17.2 µM (inactive)	17.2 µM (inactive)	17.4 µM (inactive)	–	19.1 µM (inactive)	–
CC[C@@]1(O)C(=O)OCc2c1cc1n(c2=O)Cc2cc3cc(OC)ccc3nc2-1	0.01 µM (active)	–	0.0604 µM (active)	–	0.144 µM (active)	–	0.01 µM (active)	–	–
COc1cc([C@@H]2c3cc4c(cc3C[C@H]3COC(=O)[C@@H]32)OCO4)cc(OC)c1OC [DESOXYPODOPHYLLOTOXIN]	0.00698 µM (active)	0.00843 µM (active)	0.00703 µM (active)	0.00875 µM (active)	–	0.00859 µM (active)	0.00728 µM (active)	–	33.6 µM (inactive)
C[C@@H]1C[C@H]2[C@@H]3CCC4=CC(=O)C=C[C@]4(C)[C@@]3(F)[C@@H](O)C[C@]2(C)[C@@]1(O)C(=O)CO [DEXAMETHASONE]	95.9 µM (inactive)	> 100 µM (inactive)	> 100 µM (inactive)	–	> 100 µM (inactive)	–	–	–	–
